The results in this text go back to patent US9416111B2, “Substituted diazine and triazine spleen tyrosine kinease (Syk) inhibitors” (Merck Sharp & Dohme Corp., priority 2012, dated 2016).

The target of this experiment is T1, recombinant human GST-SYK (Homo sapiens, UniProt P43405).
T1 construct: purchased Carna Biosciences 08-176
Nature of the experiment: Homogeneous Time-Resolved Fluorescence (HTRF) assay for the recombinant human Syk enzyme. The experiment is classed as biochemical. Particulars: GST-hSYK 5 pM, ATP 25 μM, IC50 rated in classes, read-out: rhSYK Activity. In a few lines:
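HTRF read-out, via Europium anti-phosphotyrosine antibody and SA-APC added with EDTA, measured phosphorylation of a 250 nM biotinylated substrate after 45 min at room temperature with 25 μM ATP and 5 mM magnesium. Enzyme was 5 pM GST-hSYK, preincubated 10 min with compound in Tris pH 7.5 buffer containing DTT.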

`Cc1cc(Nc2nccc(C(F)(F)F)n2)cc(-c2cnc(NC(C)(C)CO)nc2)c1` [Example 2.57, 2-methyl-2-{[5-(3-methyl-5-{[4-(trifluoromethyl)pyrimidin-2-yl]amino}phenyl)pyrimidin-2-yl]amino}propan-1-ol]: the IC50 was below 0.1 µM.
For the compound `Cc1cc(Nc2nccc(C(F)(F)F)n2)cc(-c2cnc(NC(C)CO)nc2)c1` (centres unmarked) [Example 2.58, 2-{[5-(3-methyl-5-{[4-(trifluoromethyl)pyrimidin-2-yl]amino}phenyl)pyrimidin-2-yl]amino}propan-1-ol], the IC50 was below 0.1 µM.
For `CCC(CO)Nc1ncc(-c2cc(C)cc(Nc3nccc(C(F)(F)F)n3)c2)cn1` (centres unmarked) [Example 2.59, 2-{[5-(3-methyl-5-{[4-(trifluoromethyl)pyrimidin-2-yl]amino}phenyl)pyrimidin-2-yl]amino}butan-1-ol] the value was below 0.1 µM.
For `Cc1cc(Nc2nccc(C(F)(F)F)n2)cc(-c2cnc(NCC(C)O)nc2)c1` (centres unmarked) [Example 2.60, 1-{[5-(3-methyl-5-{[4-(trifluoromethyl)pyrimidin-2-yl]amino}phenyl)pyrimidin-2-yl]amino}propan-2-ol] the value was below 0.1 µM; for `Cc1cc(Nc2nccc(C(F)(F)F)n2)cc(-c2cnc(NCC(O)CC(=O)O)nc2)c1` (centres unmarked) [Example 2.61], below 0.1 µM; for `Cc1cc(Nc2nccc(C(F)(F)F)n2)cc(-c2cnc(NCCO)nc2)c1` [Example 2.62, 2-{[5-(3-methyl-5-{[4-(trifluoromethyl)pyrimidin-2-yl]amino}phenyl)pyrimidin-2-yl]amino}ethanol], below 0.1 µM.
In the case of `Cc1cc(Nc2nccc(C(F)(F)F)n2)cc(-c2cnc(NCc3cn(C)cn3)nc2)c1` [Example 2.63, N-[3-methyl-5-(2-{[(1-methyl-1H-imidazol-4-yl)methyl]amino}pyrimidin-5-yl)phenyl]-4-(trifluoromethyl)pyrimidin-2-amine], the IC50 is below 0.1 µM.
For `Cc1cc(Nc2nccc(C(F)(F)F)n2)cc(-c2cnc(NCC(=O)N(C)C)nc2)c1` [Example 2.64, N,N-dimethyl-N~2~-[5-(3-methyl-5-{[4-(trifluoromethyl)pyrimidin-2-yl]amino}phenyl)pyrimidin-2-yl]glycinamide] the value was below 0.1 µM; for `Cc1cc(Nc2nccc(C(F)(F)F)n2)cc(-c2cnc(N3CCN(CC(F)(F)F)CC3)nc2)c1` [Example 2.65, N-(3-methyl-5-{2-[4-(2,2,2-trifluoroethyl)piperazin-1-yl]pyrimidin-5-yl}phenyl)-4-(trifluoromethyl)pyrimidin-2-amine], 0.1 to 1 µM.
Regarding `COCC1CCN(c2ncc(-c3cc(C)cc(Nc4nccc(C(F)(F)F)n4)c3)cn2)C1` (centres unmarked) [Example 2.66, N-(3-{2-[3-(methoxymethyl)pyrrolidin-1-yl]pyrimidin-5-yl}-5-methylphenyl)-4-(trifluoromethyl)pyrimidin-2-amine], the IC50 lay in the range of 0.1 to 1 µM.
For `Cc1cc(Nc2nccc(C(F)(F)F)n2)cc(-c2cnc(N3CCN(C)C(=O)C3C)nc2)c1` (centres unmarked) [Example 2.67, 1,3-dimethyl-4-[5-(3-methyl-5-{[4-(trifluoromethyl)pyrimidin-2-yl]amino}phenyl)pyrimidin-2-yl]piperazin-2-one] the value was below 0.1 µM.
As for `CCCN1CCCN(c2ncc(-c3cc(C)cc(Nc4nccc(C(F)(F)F)n4)c3)cn2)CC1` [Example 2.68, N-{3-methyl-5-[2-(4-propyl-1,4-diazepan-1-yl)pyrimidin-5-yl]phenyl}-4-(trifluoromethyl)pyrimidin-2-amine], the IC50 is below 0.1 µM.
The value for `CNC(=O)CCNc1ncc(-c2cc(C)cc(Nc3nccc(C(F)(F)F)n3)c2)cn1` [Example 2.69, N-methyl-N~3~-[5-(3-methyl-5-{[4-(trifluoromethyl)pyrimidin-2-yl]amino}phenyl)pyrimidin-2-yl]-beta-alaninamide] was below 0.1 µM; that for `CC(=O)NCCCNc1ncc(-c2cc(C)cc(Nc3nccc(C(F)(F)F)n3)c2)cn1` [Example 2.71, N-(3-{[5-(3-methyl-5-{[4-(trifluoromethyl)pyrimidin-2-yl]amino}phenyl)pyrimidin-2-yl]amino}propyl)acetamide] was below 0.1 µM.
